In patent US7999119B2, “Compounds having CRTH2 antagonist activity” (Oxagen Limited, priority 2006, dated 2011):
Where “and” joins values, the source holds several entries; their conditions need not be identical. Identical values can stand only once. Like-named read-outs stand apart in the source and are kept apart here.

How the values were obtained:
[1] = system: PGD2 induced eosinophil shape change; assay: Human whole blood eosinophil shape change assay; type: cell-based; conditions: Homo sapiens, Eosinophil
Summary of the method: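 Compound added to human whole blood and incubated 15 min at 37° C., 5% CO2, before cell fixation and red-cell lysis. Leukocytes analysed by FACS, eosinophils gated by autofluorescence, 2000 events per sample, triplicate; read-out is inhibition of PGD2-induced eosinophil shape change.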

[2] = system: DK-PGD2-induced blood eosinophilia; assay: Inhibition of DK-PGD2-induced blood eosinophilia in rats; type: in vivo, rat; conditions: female rats, oral dosing 30 min before 10 μg DK-PGD2 intracardiac; ED50 from dose-response curve; the values are: ED50
Method: Evaluation of Compounds of General Formula (I) as Inhibitors of 13,14-dihydro-15-keto prostaglandin D2 (DK-PGD2)-Induced Blood Eosinophilia in Rats
The test compound was dissolved in DMSO and diluted with water to give a final dosing volume of 2 ml/kg.
Female rats (175-250 g; UH colony) were dosed orally with test compound (or vehicle).
30 min after dosing all animals were anaesthetised with isoflurane.
Following induction of anaesthesia, animals receive an intracardiac injection of 10 μg DK-PGD2 in 0.3 ml heparinised (10 U/ml) saline. Control animals received an injection of 0.3 ml heparinised saline.
60 min after the intracardiac injection, animals were injected with an overdose of pentobarbitone sodium and a blood sample was taken (into heparin) by cardiac puncture while the rat was anaesthetised but not dead.
An aliquot of blood (100 μl) was added to Turk's solution and the total leukocyte count determined with a haemocytometer.
A further aliquot of blood (500 μl) was mixed with an equal volume of 4% Dextran (mw 500,000) and the erythrocytes allowed to settle. A cytospin preparation was made from the resulting leukocyte rich fraction.
Cytospin preparations were fixed with methanol (5 min) and stained with May-Grunwald (5 min) and Giemsa (15 min) stains. Finally cytospins were washed in phosphate buffer (pH6.8) and air dried.
Differential leukocyte counts were obtained from the cytospin preparations.
Blood eosinophil numbers were determined from the total leukocyte count and the percentage eosinophils (differential count).
Because it was impractical to generate sufficient data in any given experiment, data were obtained over a number of replicate experiments. Data from these replicate experiments were pooled, to provide at least 5 animals in each group and a dose-response curve fitted following a significance test (Mann Whitney) to determine whether or not DK-PGD2 caused a significant increase in blood eosinophils (GraphPad, Prism). A difference between groups was taken to be significant when P<0.05. ED50 values were calculated from the dose-response curve.

[3] = Pharmacokinetics following oral administration in the rat; type: in vivo
Method: Investigation of Pharmacokinetics of Compounds of General Formula (I) Following Oral Administration in the Rat
Rats were weighed on the day of dosing.
The test material was prepared as a 0.3 mg/mL suspension in 1% carboxy-methyl-cellulose (CMC).
Three groups of 3 rats were dosed as follows:
Doses were administered as a single oral dose using a gavage tube at a constant dose volume of 10 mL/kg.
At each sampling time point blood samples (approximately 0.3 mL) was taken from a catheter inserted into a lateral tail vein prior to the start of the experiment. The final blood sample (approximately 2 mL) from each animal was taken by cardiac puncture under isoflurane anaesthesia following which the animal was killed by exsanguination. Blood samples were taken into individual heparinised containers. Blood samples were collected at the following times post-dose:
Following collection, the blood samples were centrifuged (approximately 10,000×g, 2 min at 4° C.) and the plasma stored as one aliquot at approximately −20° C. pending analysis of drug concentrations by LC-MS/MS.
The plasma samples were analysed for test material concentrations at BioDynamics using an LC-MS/MS method developed at BioDynamics.

[4] = rat, 3 mg/kg p.o, individual male animals, 3 mg/kg

Cc1c(Cc2ccccc2S(=O)(=O)c2ccc(F)cc2)c2cc(F)ccc2n1CC(=O)O [Compound 3, 2-(5-fluoro-3-(2-(4-fluorophenylsulfonyl)benzyl)-2-methyl-1H-indol-1-yl)acetic acid]
IC50 ([1]; 10 nm PGD2-induced eosinophil shape change, human whole blood, read-out: Whole Blood IC50): 6 nM | IC50 ([1]; Table 12 summary of whole blood eosinophil shape change IC50, read-out: IC50 (μmol)): 6 nM | IC50 ([1]; whole blood eosinophil shape change IC50 converted to ng/mL, read-out: IC50): 2.7 ng/mL | Potency in inhibition of DK-PGD2-induced blood eosinophilia [2]: 0.01 mg/kg | concentration at 0.25 h ([3]; male, rat, plasma, po, 3 mg/kg, rat, 3 mg/kg oral, 0.25 h, individual male animals, read-out: Concentration in Blood): 836 ng/mL | concentration at 0.25 h ([3]; male, rat, plasma, po, 3 mg/kg, rat, 3 mg/kg oral, 0.25 h, mean, read-out: Concentration in Blood, Mean): 1100 ng/mL | concentration at 0.5 h ([3]; male, rat, plasma, po, 3 mg/kg, rat, 3 mg/kg oral, 0.5 h, individual male animals, read-out: Concentration in Blood): 2060 ng/mL | concentration at 0.5 h ([3]; male, rat, plasma, po, 3 mg/kg, rat, 3 mg/kg oral, 0.5 h, mean, read-out: Concentration in Blood, Mean): 2250 ng/mL | concentration at 1 h ([3]; male, rat, plasma, po, 3 mg/kg, rat, 3 mg/kg oral, 1 h, individual male animals, read-out: Concentration in Blood): 2490 ng/mL | concentration at 1 h ([3]; male, rat, plasma, po, 3 mg/kg, rat, 3 mg/kg oral, 1 h, mean, read-out: Concentration in Blood, Mean): 3140 ng/mL | concentration at 2 h ([3]; male, rat, plasma, po, 3 mg/kg, rat, 3 mg/kg oral, 2 h, individual male animals, read-out: Concentration in Blood): 4320 ng/mL | concentration at 2 h ([3]; male, rat, plasma, po, 3 mg/kg, rat, 3 mg/kg oral, 2 h, mean, read-out: Concentration in Blood, Mean): 4080 ng/mL | concentration at 4 h ([3]; male, rat, plasma, po, 3 mg/kg, rat, 3 mg/kg oral, 4 h, individual male animals, read-out: Concentration in Blood): 3130 ng/mL | concentration at 4 h ([3]; male, rat, plasma, po, 3 mg/kg, rat, 3 mg/kg oral, 4 h, mean, read-out: Concentration in Blood, Mean): 2400 ng/mL | concentration at 6 h ([3]; male, rat, plasma, po, 3 mg/kg, rat, 3 mg/kg oral, 6 h, individual male animals, read-out: Concentration in Blood): 1330 ng/mL | concentration at 6 h ([3]; male, rat, plasma, po, 3 mg/kg, rat, 3 mg/kg oral, 6 h, mean, read-out: Concentration in Blood, Mean): 1140 ng/mL | concentration at 8 h ([3]; male, rat, plasma, po, 3 mg/kg, rat, 3 mg/kg oral, 8 h, individual male animals, read-out: Concentration in Blood): 1160 ng/mL | concentration at 8 h ([3]; male, rat, plasma, po, 3 mg/kg, rat, 3 mg/kg oral, 8 h, mean, read-out: Concentration in Blood, Mean): 847 ng/mL | concentration at 12 h ([3]; male, rat, plasma, po, 3 mg/kg, rat, 3 mg/kg oral, 12 h, mean, read-out: Concentration in Blood, Mean): 277 ng/mL | concentration at 24 h ([3]; male, rat, plasma, po, 3 mg/kg, rat, 3 mg/kg oral, 24 h, mean, read-out: Concentration in Blood, Mean): 16.1 ng/mL | AUC(0-inf) ([3]; male, rat, plasma, po, 3 mg/kg, rat, 3 mg/kg p.o, individual male animals, read-out: AUCinf): 24400 ng·h/mL | Cmax ([3]; male, rat, plasma, po, 3 mg/kg, rat, 3 mg/kg p.o, individual male animals, read-out: Cmax): 4320 ng/mL | Tmax ([3]; male, rat, plasma, po, 3 mg/kg, rat, 3 mg/kg p.o, individual male animals, read-out: Tmax): 2 h | half-life ([3]; male, rat, plasma, po, 3 mg/kg, rat, 3 mg/kg p.o, individual male animals, read-out: T½ (converted)): 196 min | AUC(0-inf) ([3]; male, rat, plasma, po, 3 mg/kg, rat, 3 mg/kg p.o, mean, summary without unit (Table 12), read-out: AUCinf (mean)): 21100 ng·h/mL | Cmax ([3]; male, rat, plasma, po, 3 mg/kg, rat, 3 mg/kg p.o, mean, summary without unit (Table 12), read-out: Cmax (mean)): 4080 ng/mL | AUC(0-inf) ([3]; male, rat, plasma, po, 3 mg/kg, rat, 3 mg/kg p.o, mean, read-out: AUCinf, Mean): 21100 ng·h/mL | Cmax ([3]; male, rat, plasma, po, 3 mg/kg, rat, 3 mg/kg p.o, mean, read-out: Cmax, Mean): 4080 ng/mL | Tmax ([3]; male, rat, plasma, po, 3 mg/kg, rat, 3 mg/kg p.o, mean, read-out: Tmax, Mean): 2 h | half-life ([3]; male, rat, plasma, po, 3 mg/kg, rat, 3 mg/kg p.o, mean, read-out: T½, Mean (converted)): 168 min | Fold over IC50 at 12 h ([3]; mean blood concentration at 12 h (rat, 3 mg/kg p.o.) divided by whole blood IC50 in ng/ml): 102 | Concentration in Blood ([3]; rat, 3 mg/kg oral, 0.25 h, individual male animals, 3 mg/kg): 1130.7 ng/mL and 1337.2 ng/mL | Concentration in Blood ([3]; rat, 3 mg/kg oral, 0.5 h, individual male animals, 3 mg/kg): 2205.2 ng/mL and 2487.5 ng/mL | Concentration in Blood ([3]; rat, 3 mg/kg oral, 1 h, individual male animals, 3 mg/kg): 3547.8 ng/mL and 3393.7 ng/mL | Concentration in Blood ([3]; rat, 3 mg/kg oral, 2 h, individual male animals, 3 mg/kg): 3685.1 ng/mL and 4221.0 ng/mL | Concentration in Blood ([3]; rat, 3 mg/kg oral, 4 h, individual male animals, 3 mg/kg): 2023.1 ng/mL and 2053.8 ng/mL | Concentration in Blood ([3]; rat, 3 mg/kg oral, 6 h, individual male animals, 3 mg/kg): 995.0 ng/mL and 1098.0 ng/mL | Concentration in Blood ([3]; rat, 3 mg/kg oral, 8 h, individual male animals, 3 mg/kg): 699.5 ng/mL and 678.5 ng/mL | Concentration in Blood ([3]; rat, 3 mg/kg oral, 12 h, individual male animals, 3 mg/kg): 465.3 ng/mL and 163.3 ng/mL and 201.1 ng/mL | Concentration in Blood ([3]; rat, 3 mg/kg oral, 24 h, individual male animals, 3 mg/kg): 38.2 ng/mL and 0.0 ng/mL and 10.1 ng/mL | AUCinf [3, 4]: 17738 ng·h/mL and 19110 ng·h/mL | Cmax [3, 4]: 3685 ng/mL and 4221 ng/mL | T½ [3, 4]: 2.26 h and 2.62 h
